Literature values in patent US8541178B2, “Analysis of antibody drug conjugates by bead-based affinity capture and mass spectrometry” (Genentech, Inc., priority 2008, dated 2013).

Conditions: more cytotoxic than conventional cancer chemotherapeutic agents

SMILES: COc1cc2cc(c1Cl)N(C)C(=O)C[C@H](OC(=O)[C@H](C)N(C)C(C)=O)[C@]1(C)O[C@H]1[C@H](C)[C@@H]1C[C@@](O)(NC(=O)O1)[C@H](OC)/C=C/C=C(\C)C2 [Maytansine]
- Cytotoxicity relative to methotrexate, daunorubicin, and vincristine: 100- to 1000 fold
